Results as given in PMC11053681, “Gold(I) and Silver(I) Complexes Containing Hybrid Sulfonamide/Thiourea Ligands as Potential Leishmanicidal Agents” (Pharmaceutics, 2024).
Entries after “also recorded” stand apart in the source; their conditions may differ.

Key:
[1] = Solubility in buffer for the fluorescence experiments; format: physicochemical; settings: Tris-HCl buffer
Experimental: The compounds were solubilized in DMSO and then we made successive dilutions in a Tris-HCl 25 mmol L^−1 buffer, pH 8.0, containing 100 mmol L^−1 of NaCl. For all experiments, the final concentration of DMSO was kept constant and equal to 2.5%. Solutions with increasing concentrations of ligand and constant concentration of LbOYE (1 µmol L^−1) were prepared, which were kept at 25 °C for a period of 1h before acquisition of fluorescence emission spectra.
After the synthesis and structural characterization of the compounds, studies of interaction of the compounds and the recombinant LbOYE were carried out by fluorescence measurements.

[2] = test system: Vero cells; assay: Cytotoxicity assay on Vero cells (resazurin); format: cell-based, African green monkey; settings: 24 h treatment
Outline: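 Vero cells seeded at 5 × 10^5 cells/well, grown 24 h at 37 °C, 5% CO2 in RPMI with 10% FBS. Compounds tested in triplicate by serial dilution from 500 µM to 3.9 µM for 24 h. Viability read as resazurin fluorescence.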

[3] = test system: RAW macrophages infected with Leishmania infantum; assay: Infectivity test / infection rate in RAW macrophages; format: cell-based; settings: three concentrations (below IC50, IC50, above IC50), 24 h treatment
Experimental: For the infection of RAW macrophages adhered to the plates, we used parasites in the promastigote form of Leishmania infantum, in the stationary phase, in a ratio of 10:1 (promastigotes/macrophages).
Macrophages were plated in the amount of 5 × 10^4 cells per well, in 96-well plates, which were kept in a CO2 oven at 37 °C for 24 h. The parasites were plated at a concentration of 10:1. The plates were kept in a CO2 oven for 12 h until the parasites infected the cells. […] Plates were fixed with paraformol for further evaluation. Plaques were evaluated by counting parasites within 200 cells under the EVOS Cell Imaging System (Thermo Scientific, Waltham, MA, USA) microscope by staining with propidium iodide.
In view of the data obtained, the six most promising compounds (HL1^Ch, HL2^Ph, Ag3, Ag4, Ag6 and Au2) were selected for carrying out the infection rate test against the L. infantum parasite. […] This test was performed at four stages. The first step determined the percentage of the amount in 200 infected macrophages per parasite, the second determined the percentage of parasites that infects 100 cells/macrophages, the third determined the average percentage of parasites that infects 200 cells/macrophages and, finally, the fourth step indicated the infection rate, that is, the result of the amount of Leishmania per macrophage (obtained from the third step) multiplied by the percentage of infected macrophages. Figure 5 presents the graphs of the infection rates, while the other graphs can be found in Figure S7.4.

Solubility in buffer at the concentrations for the fluorescence experiments, in words [1]: passed this stage
Compound: Cc1ccc(S(=O)(=O)NNC(Nc2ccc(F)cc2)=[S][Ag+][S]=C(NNS(=O)(=O)c2ccc(C)cc2)Nc2ccc(F)cc2)cc1.O=[N+]([O-])[O-] [Ag3, [Ag(HL3^FPh)2]NO3]
CC50 [2]: > 500 µM | Infection rate of L. infantum in macrophages, in words [3]: able to inhibit the parasite infection inside the cells even at lower concentrations than that determined by their IC50 values; also recorded: able to inhibit the parasite infection even at lower concentrations than that of their IC50 values
